This is an account of results in ChEMBL document CHEMBL1149221, “Terephthalamide derivatives as mimetics of the helical region of Bak peptide target Bcl-xL protein” (Bioorg Med Chem Lett, 2004).

Sequence of Bcl-2-like protein 1 (Q07817 whole entry): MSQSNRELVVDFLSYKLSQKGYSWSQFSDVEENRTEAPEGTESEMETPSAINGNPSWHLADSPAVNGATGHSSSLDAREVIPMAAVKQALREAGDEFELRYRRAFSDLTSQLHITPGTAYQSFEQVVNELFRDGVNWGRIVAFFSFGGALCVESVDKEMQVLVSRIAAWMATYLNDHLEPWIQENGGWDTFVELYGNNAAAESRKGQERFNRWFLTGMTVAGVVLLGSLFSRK

The assay addresses Bcl-2-like protein 1 (Homo sapiens, UniProt Q07817). The experiment in a line: Binding affinity for Bcl-xL was assessed by a fluorescence polarization assay using a fluorescently labeled 16-mer Bak-peptide.
Take `CC(C)CC(NC(=O)c1ccc(C(=O)N[C@@H](CC(C)C)C(=O)O)c(Oc2cccc3ccccc23)c1)C(=O)O` (stereo partly specified): the inhibition constant Ki is over 30 µM.

`CC(C)CC(NC(=O)c1ccc(C(=O)N[C@@H](CC(C)C)C(=O)O)c(Oc2ccccc2)c1)C(=O)O` (stereo partly specified) showed a Ki of over 30 µM.

`COC(=O)[C@@H](CC(C)C)NC(=O)c1ccc(C(=O)N(C(C)C)C(C)C)cc1OC` returned a Ki of 1.78 µM.

As to `COC(=O)CNC(=O)c1ccc(C(=O)N(C)C)cc1`, the inhibition constant Ki is over 30 µM.

With `CC(C)C[C@H](NC(=O)c1ccc(C(=O)N(CC(C)C)C(C)C(=O)O)cc1OC(C)C)C(=O)O` (stereo partly specified), the inhibition constant Ki was over 30 µM.

In the case of `CC(C)C[C@H](NC(=O)c1ccc(C(=O)N(C(C)C)C(C)C)cc1Oc1cccc2ccccc12)C(=O)O`, the affinity corresponds to a Ki of 7.63 µM.

As for `COC(=O)[C@H](C)NC(=O)c1ccc(C(=O)N(C(C)C)C(C)C)cc1OC(C)C`, affinity was put at a Ki of 11 µM.

In turn, `CC(C)C[C@H](NC(=O)c1ccc(C(=O)N(C(C)C)C(C)C)cc1Oc1ccccc1)C(=O)O` gave an inhibitory constant (Ki) of 1.01 µM.

Take `COC(=O)[C@@H](NC(=O)c1ccc(C(=O)N(C(C)C)C(C)C)cc1OC(C)C)C(C)C`: the Ki amounted to 5.85 µM.

As for `CC(C)C[C@H](NC(=O)c1ccc(C(=O)N(CC(C)C)C(C(=O)O)C(C)C)cc1OC(C)C)C(=O)O` (stereo partly specified), the Ki was over 30 µM.

With `COC(=O)[C@@H](NC(=O)c1ccc(C(=O)N(C(C)C)C(C)C)cc1OC(C)C)c1ccccc1`, the inhibition constant Ki came out at 10.9 µM.
